In test [1] the target is T1, Fe65-WW domain (WW domain of Fe65) (Homo sapiens, UniProt O00213).
T1 construct: made in house; host or cells: chemical solid-phase peptide synthesis (Fmoc, Rink Amide AM resin); no expression host
T1 sequence (O00213 253-285 limits assumed): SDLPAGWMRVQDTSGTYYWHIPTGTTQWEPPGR
The experiment in a line: ITC binding to Fe65-WW. Also noted: species or system human and mouse (WW domain identical). As to conditions: 310 K. How it is done:
Synthesis of acetyl-Fe65-WW, acetyl-Pin1-WW, and the control PPPPP (structures involved in Figure 2) was carried out on a Rink Amide AM (0.3 mmol∙g^−1) resin using Fmoc chemistry and activation with HATU in the presence of DIPEA. Cleavage was achieved by a treatment with TFA/H2O/triisopropylsilane/1,4-dithio-DL-threitol/phenol (90:5:3:1:1) at room temperature (RT). TFA was removed in vacuo, the peptides were then precipitated using cold, dry diethyl-ether, dissolved in ACN/H2O and lyophilized.
Isothermal titrations were performed using a Microcal VP-ITC (Malvern Instruments, Malvern, UK) microcalorimeter. Binding experiments were carried out in degassed phosphate-buffered saline (PBS) at pH 7.4. The concentrations of Fe65-WW and Pin1-WW were normalized for the peptide contents. In one titration experiment, 10-μL portions of the ligand-containing solution (P33 or PPPPP) were injected from a computer-controlled 300-μL microsyringe at intervals of 300 s into the solution of the WW domain (Fe65-WW or Pin1-WW), dissolved in the same buffer as for the ligand. The rev of the microsyringe was set to 307 rpm. Measurements were repeated twice at 310 K. The starting concentrations of Fe65-WW and Pin1-WW in the cell were 83.5 and 81.4 μM, respectively, and the concentrations of the stock solutions containing P33 or PPPPP in the syringe were 1.006 and 1.056 mM, respectively. Control experiments were performed by injecting P33 or PPPPP into the cell containing plain buffer without the WW domain, with results achieved via subtracting the dilution heats from those measured in the presence of the WW domain.

In the next test the test system is PSD95. The test can be described thus: Western blot, PSD95 level. The class given is in vivo, mouse. The conditions noted are these: APP/PS1 mice; 5 mg∙kg^−1 i.p., five days per week, six months. As to the method: For this study, three-month-old male and female WT and APP/PS1 mice (n = 37) were used. Four groups were defined: WT-vehicle (physiological saline) (male n = 4; female n = 6), WT-P33 (male n = 6; female n = 5), APP/PS1-vehicle (male n = 3; female n = 5), and APP/PS1-P33 (male n = 6; female n = 2). Animals were subjected to intraperitoneal (i.p.) injections of P33 (5 mg∙kg^−1) for five days per week, over a course of six months. The mice were kept in groups under constant temperature (23 ± 0.5 °C), lighting (12-h/12-h light/dark cycle, lights on at 7:00 a.m.), and humidity (~50%). Standard mouse chow and tap water were supplied ad libitum. All behavioral experiments were performed in the light period. […]
Protein samples, identically prepared as for ELISA, (20 μg/lane) were separated on a 15% SDS-polyacrylamide gel (80 V, 20 min at RT; than 130 V, 60 min at RT) or on a 4–12% NuPAGE® Bis-Tris Gel (Thermo Fischer Scientific, Waltham, MA, USA, 200V, 30 min at RT) and transferred to a nitrocellulose membrane (Whatman, Maidstone, UK, 450 mA, 90 min at 4 °C). […] Membranes were scanned with a Bio-Rad Molecular Imager® ChemiDoc™ XRS+Imaging System (Bio-Rad Laboratories, Hercules, CA, USA) and evaluated with the Image Lab 4.0 software.
The results of spine density and immunohistochemistry experiments were calculated with one-way ANOVA followed by Fisher’s LSD post hoc tests. […]

A further test concerns human APP. The test can be described thus: Western blot, APP level in brain (6E10). As to conditions: APP/PS1 mice; 5 mg∙kg^−1 i.p., five days per week, six months; HC and CTX. The class given is in vivo, human APP in APP/PS1 transgenic mice. As to the method: For this study, three-month-old male and female WT and APP/PS1 mice (n = 37) were used. Four groups were defined: WT-vehicle (physiological saline) (male n = 4; female n = 6), WT-P33 (male n = 6; female n = 5), APP/PS1-vehicle (male n = 3; female n = 5), and APP/PS1-P33 (male n = 6; female n = 2). Animals were subjected to intraperitoneal (i.p.) injections of P33 (5 mg∙kg^−1) for five days per week, over a course of six months. The mice were kept in groups under constant temperature (23 ± 0.5 °C), lighting (12-h/12-h light/dark cycle, lights on at 7:00 a.m.), and humidity (~50%). Standard mouse chow and tap water were supplied ad libitum. All behavioral experiments were performed in the light period. Handling was done daily at the same time.
Nine-month-old mice (three animals per group) were euthanized via cervical dislocation. […] To quantify the level of Aβ in the mice, we used a sandwich ELISA Kit (Innotest Amyloid-[…]) from Innogenetics (Gent, Belgium), following the instructions of the manufacturer. The absorbance values were measured at 450 nm on a 96-well plate reader (NOVOstar OPTIMA, BMG Labtech, Offenburg, Germany). […]
The results of spine density and immunohistochemistry experiments were calculated with one-way ANOVA followed by Fisher’s LSD post hoc tests. […] Data were analyzed with SPSS (IBM SPSS Statistics 24), and were expressed as the mean ± standard error of the mean (SEM). […]
On the technique in general: In western blotting, separated proteins are transferred to a membrane and probed.

Values joined by “and” are separate entries in the source; they are usually repeats but may differ in a detail not shown here. Equal values may be shown once. Where a SMILES comes first, the peptide text is derived from it.

As usually defined, the Kd is a measure of binding affinity in units of concentration. As for `C[C@@H](N)C(=O)N1CCC[C@@H]1C(=O)N[C@H](C)C(=O)N1CCC[C@@H]1C(=O)N[C@H](CCC(=O)O)C(N)=O` [P33] (HELM PEPTIDE1{[dA].[dP].[dA].[dP].[dE].[am]}$$$$V2.0), in test [1] (PBS pH 7.4), the “selectivity of binding, Fe65-WW over Pin1-WW (in words)” value is on record as “can bind selectively to the Fe65-WW domain” and the ΔH came out at 0.082 ± 0.001 kcal/mol. The “stoichiometric factor N” value in test [1] (PBS pH 7.4, 1:1 [P33]/[Fe65-WW] complex) was 1.14 and 1.14 ± 0.01. Also, the Kd in test [1] (PBS pH 7.4, Fe65-WW 83.5 μM in cell, P33 1.006 mM in syringe, measurements repeated twice, read-out: dissociation constant Kd) turned out to be 4.68 ± 0.04 µM. Also, the “PSD95 level, effect of P33 (in words)” value in the test on PSD95 is “could be restored by applying P33 on APP/PS1 mice”. In addition, the “APP level, effect of P33 (in words)” value in the test with human APP is listed as “did not change with the P33-treatment”.
